# Laboratory results taken from patent US4605744A, “Imidazole derivatives” (Hoffmann-La Roche Inc., priority 1985, dated 1986).
# Where a name gives a salt, the structure may show the parent alone.
# Tests used:
# Assay in all cases: In vitro antibacterial activity (MIC)
# Format in all cases: cell-based
# C. freundii 8ASM = conditions: Citrobacter freundii, 8ASM, C. freundii 8ASM; read-out: MIC
# Method in brief: (§1)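 Read-out: visible growth, checked with a viewer after overnight incubation at 37° C. Bacteria, from a 10^-2 dilution of an overnight culture, were exposed to drug at 128 to 0.008 μg/ml in Mueller-Hinton broth.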
# E. aerogenes 503-478 = conditions: Klebsiella aerogenes, 503478, E. aerogenes 503-478; read-out: MIC
# Method in brief: as §1
# E. aerogenes 83 = conditions: Klebsiella aerogenes, 83, E. aerogenes 83; read-out: MIC
# Method in brief: as §1
# E. aerogenes 8 = conditions: Klebsiella aerogenes; E. aerogenes 8; read-out: MIC
# Method in brief: as §1
# E. cloacae 214 = conditions: Enterobacter cloacae, 214, E. cloacae 214; read-out: MIC
# Method in brief: as §1
# E. cloacae 5699 = conditions: Enterobacter cloacae, 5699, E. cloacae 5699; read-out: MIC
# Method in brief: as §1
# E. cloacae 6951 = conditions: Enterobacter cloacae, 6951, E. cloacae 6951; read-out: MIC
# Method in brief: as §1
# E. cloacae 9295 = conditions: Enterobacter cloacae, 9295, E. cloacae 9295; read-out: MIC
# Method in brief: as §1
# E. cloacae 9570A = conditions: Enterobacter cloacae, read-out: MIC
# Method in brief: as §1
# E. cloacae P99 = conditions: Enterobacter cloacae, P99, E. cloacae P99
# Method in brief: as §1
# E. coli 387-1 = conditions: Escherichia coli, 3871, E. coli 387-1; read-out: MIC
# Method in brief: as §1
# E. coli 48 = conditions: Escherichia coli, 48, E. coli 48; read-out: MIC
# Method in brief: as §1
# E. coli 4 = conditions: Escherichia coli, 4, E. coli 4; read-out: MIC
# Method in brief: as §1
# E. coli 503-455 = conditions: Escherichia coli, 503455, E. coli 503-455; read-out: MIC
# Method in brief: as §1
# E. coli 5152 = conditions: Escherichia coli, 5152, E. coli 5152; read-out: MIC
# Method in brief: as §1
# E. coli R-563 = conditions: Escherichia coli, R563, E. coli R-563; read-out: MIC
# Method in brief: as §1
# K. pneumoniae 35 = conditions: Klebsiella pneumoniae; K. pneumoniae 35; read-out: MIC
# Method in brief: as §1
# K. pneumoniae 4964 = conditions: Klebsiella pneumoniae, 4964, K. pneumoniae 4964; read-out: MIC
# Method in brief: as §1
# K. pneumoniae 503-964 = conditions: Klebsiella pneumoniae, 503964; K. pneumoniae 503-964; read-out: MIC
# Method in brief: as §1
# K. pneumoniae 503-994 = conditions: Klebsiella pneumoniae, 503994, K. pneumoniae 503-994; read-out: MIC
# Method in brief: as §1
# K. pneumoniae 5096 = conditions: Klebsiella pneumoniae; K. pneumoniae 5096; read-out: MIC
# Method in brief: as §1
# K. pneumoniae 8357 = conditions: Klebsiella pneumoniae, 8357, K. pneumoniae 8357; read-out: MIC
# Method in brief: as §1
# K. pneumoniae A = conditions: Klebsiella pneumoniae, K. pneumoniae A; read-out: MIC
# Method in brief: as §1
# K. pneumoniae HE7 = conditions: Klebsiella pneumoniae; K. pneumoniae HE7; read-out: MIC
# Method in brief: as §1
# P. aeruginosa 503-56 = conditions: Pseudomonas aeruginosa, 50356, P. aeruginosa 503-56; read-out: MIC
# Method in brief: as §1
# P. aeruginosa 503-820 = conditions: Pseudomonas aeruginosa, 503820; P. aeruginosa 503-820; read-out: MIC
# Method in brief: as §1
# P. aeruginosa 6148B = conditions: Pseudomonas aeruginosa, read-out: MIC
# Method in brief: as §1
# P. aeruginosa 8710 = conditions: Pseudomonas aeruginosa; P. aeruginosa 8710; read-out: MIC
# Method in brief: as §1
# P. aeruginosa 8780 = conditions: Pseudomonas aeruginosa; P. aeruginosa 8780; read-out: MIC
# Method in brief: as §1
# P. mirabilis 190 = conditions: Proteus mirabilis, 190, P. mirabilis 190; read-out: MIC
# Method in brief: as §1
# P. mirabilis 2 = conditions: Proteus mirabilis, 2, P. mirabilis 2; read-out: MIC
# Method in brief: as §1
# P. rettgeri ATCC 9250 = conditions: Providencia rettgeri, ATCC9250, P. rettgeri ATCC 9250; read-out: MIC
# Method in brief: as §1
# P. vulgaris ATCC 6380 = conditions: Proteus vulgaris, ATCC6380, P. vulgaris ATCC 6380; read-out: MIC
# Method in brief: as §1
# S. aureus Giorgio = conditions: Staphylococcus aureus, S. aureus Giorgio; read-out: MIC
# Method in brief: as §1
# S. marcescens 5805 = conditions: Serratia marcescens, 5805, S. marcescens 5805; read-out: MIC
# Method in brief: as §1
# S. marcescens S2 = conditions: Serratia marcescens; S. marcescens S2; read-out: MIC
# Method in brief: as §1
# S. marcescens S3 = conditions: Serratia marcescens; S. marcescens S3; read-out: MIC
# Method in brief: as §1
# S. marcescens S4 = conditions: Serratia marcescens, S4, S. marcescens S4; read-out: MIC
# Method in brief: as §1
# S. marcescens SM = conditions: Serratia marcescens, read-out: MIC
# Method in brief: as §1
# S. pneumoniae 6301 = conditions: Streptococcus pneumoniae, 6301, S. pneumoniae 6301; read-out: MIC
# Method in brief: as §1
# S. pneumoniae 6302 = conditions: Streptococcus pneumoniae, 6302, S. pneumoniae 6302; read-out: MIC
# Method in brief: as §1
# S. pneumoniae SC = conditions: Streptococcus pneumoniae, read-out: MIC
# Method in brief: as §1
# S. pyogenes 4 = conditions: Streptococcus pyogenes, 4, S. pyogenes 4; read-out: MIC
# Method in brief: as §1
# S. schottmuelleri = conditions: read-out: MIC
# Method in brief: as §1
# S. typhi P58A = conditions: Salmonella enterica, TYPHI
# Method in brief: as §1
smiles,measurement,setting,value
"CC1(C)S[C@@H]2[C@H](N=CN3CCC(C4=NCCN4)CC3)C(=O)N2[C@H]1C(=O)O [L, [2S-(2alpha,5alpha,6beta)]-6-[[[4-(4,5-dihydro-1H-imidazol-2-yl)-1-piperidinyl]methylene]amino]-3,3-dimethyl-7-oxo-4-thia-1-azabicyclo[3.2.0]heptane-2-carboxylic acid hydrochloride]",MIC,C. freundii 8ASM,0.25 µg/mL
same,MIC,E. aerogenes 503-478,8 µg/mL
same,MIC,E. aerogenes 83,2 µg/mL
same,MIC,E. aerogenes 8,32 µg/mL
same,MIC,E. cloacae 214,1 µg/mL
same,MIC,E. cloacae 5699,1 µg/mL
same,MIC,E. cloacae 6951,8 µg/mL
same,MIC,E. cloacae 9295,2 µg/mL
same,MIC,E. cloacae 9570A,2 µg/mL
same,MIC,E. cloacae P99,0.25 µg/mL
same,MIC,E. coli 387-1,0.25 µg/mL
same,MIC,E. coli 48,0.5 µg/mL
same,MIC,E. coli 4,0.125 µg/mL
same,MIC,E. coli 503-455,4 µg/mL
same,MIC,E. coli 5152,32 µg/mL
same,MIC,E. coli R-563,0.25 µg/mL
same,MIC,K. pneumoniae 35,2 µg/mL
same,MIC,K. pneumoniae 4964,64 µg/mL
same,MIC,K. pneumoniae 503-964,2 µg/mL
same,MIC,K. pneumoniae 503-994,1 µg/mL
same,MIC,K. pneumoniae 5096,64 µg/mL
same,MIC,K. pneumoniae 8357,2 µg/mL
same,MIC,K. pneumoniae A,0.25 µg/mL
same,MIC,K. pneumoniae HE7,> 128 µg/mL
same,MIC,P. aeruginosa 503-56,64 µg/mL
same,MIC,P. aeruginosa 503-820,128 µg/mL
same,MIC,P. aeruginosa 6148B,128 µg/mL
same,MIC,P. aeruginosa 8710,128 µg/mL
same,MIC,P. aeruginosa 8780,> 128 µg/mL
same,MIC,P. mirabilis 190,0.5 µg/mL
same,MIC,P. mirabilis 2,1 µg/mL
same,MIC,P. rettgeri ATCC 9250,1 µg/mL
same,MIC,P. vulgaris ATCC 6380,0.25 µg/mL
same,MIC,S. aureus Giorgio,2 µg/mL
same,MIC,S. marcescens 5805,8 µg/mL
same,MIC,S. marcescens S2,0.5 µg/mL
same,MIC,S. marcescens S3,0.5 µg/mL
same,MIC,S. marcescens S4,2 µg/mL
same,MIC,S. marcescens SM,1 µg/mL
same,MIC,S. pneumoniae 6301,0.5 µg/mL
same,MIC,S. pneumoniae 6302,1 µg/mL
same,MIC,S. pneumoniae SC,1 µg/mL
same,MIC,S. pyogenes 4,0.5 µg/mL
same,MIC,S. schottmuelleri,0.25 µg/mL
same,MIC,S. typhi P58A,0.5 µg/mL
